Experimental data as given in PubChem BioAssay AID328 (DTP/NCI, 2004).
Inconclusive results and toxic doses are left out. Rule for the calls: active = survival T/C of 150% or more; inactive = T/C below 125% in these data.

System: BDF1 mice, P388 leukemia ip, median survival T/C
Assay: NCI In Vivo Anticancer Drug Screen. Data for tumor model P388 Leukemia (intraperitoneal) in B6D2F1 (BDF1) mice
Details: endpoint: median survival time, higher = longer survival
Outline: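 T/C = treated-group survival ÷ vehicle-control survival; tumour transplanted into mice before dosing.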

[1] = dose: 200.0 mg/kg/injection, schedule: Q01DX009 (ip), vehicle: saline with Tween-80
[2] = dose: 50.0 mg/kg/injection, schedule: Q01DX009 (ip), vehicle: saline with Tween-80
[3] = dose: 100.0 mg/kg/injection, schedule: Q01DX009 (ip), vehicle: saline with Tween-80

Measured: T/C

CC1OC(OC2C(=O)c3c(O)cc(O)cc3OC2c2ccc(O)c(O)c2)C(O)C(O)C1O (stereo unspecified)
inactive: dose: 25.0 mg/kg/injection, schedule: Q01DX009 (ip), vehicle: alcohol 100 % of control | dose: 50.0 mg/kg/injection, schedule: Q01DX009 (ip), vehicle: alcohol 96 % of control | dose: 100.0 mg/kg/injection, schedule: Q01DX009 (ip), vehicle: alcohol 92 % of control | dose: 200.0 mg/kg/injection, schedule: Q01DX009 (ip), vehicle: alcohol 106 % of control | [1] 115 % of control | dose: 300.0 mg/kg/injection, schedule: Q01DX009 (ip), vehicle: saline with Tween-80 90 % of control | dose: 455.0 mg/kg/injection, schedule: Q01DX009 (ip), vehicle: saline with Tween-80 99 % of control

Cc1csc(NC(=O)Nc2ccc(F)cc2[N+](=O)[O-])n1
inactive: dose: 12.5 mg/kg/injection, schedule: Q01DX009 (ip), vehicle: saline with Tween-80 110 % of control | dose: 25.0 mg/kg/injection, schedule: Q01DX009 (ip), vehicle: saline with Tween-80 88 % of control | [2] 120 % of control

COc1ccc2c(=O)c3c(=O)c4c(=O)oc5ccccc5c4oc3oc2c1
inactive: [2] 88 % of control | [3] 88 % of control | [1] 88 % of control

CCc1ccccc1NC(=O)N1CCOCC1
inactive: [2] 94 % of control | [3] 102 % of control | [1] 109 % of control

CCOC(=O)C(Cc1ccc(N(CCCl)CCCl)cc1)NC(=O)C(Cc1ccc([N+](=O)[O-])cc1)NC(C)=O (stereo unspecified)
inactive: dose: 5.0 mg/kg/injection, schedule: Q04DX003 (ip), vehicle: other 105 % of control | dose: 10.0 mg/kg/injection, schedule: Q04DX003 (ip), vehicle: other 96 % of control | dose: 20.0 mg/kg/injection, schedule: Q04DX003 (ip), vehicle: other 99 % of control | dose: 40.0 mg/kg/injection, schedule: Q04DX003 (ip), vehicle: other 99 % of control

CN(C)CCCN1CCC2(CC[C@H]3CCCC[C@@H]3C2)CC1
inactive: dose: 18.75 mg/kg/injection, schedule: Q04DX003 (ip), vehicle: saline 100 % of control | dose: 37.5 mg/kg/injection, schedule: Q04DX003 (ip), vehicle: saline 109 % of control | dose: 75.0 mg/kg/injection, schedule: Q04DX003 (ip), vehicle: saline 113 % of control

COc1cc2c(cc1OC)C1CCc3cc(OC)c(OC)cc3C1N=C2 (stereo unspecified)
inactive: dose: 20.0 mg/kg/injection, schedule: Q01DX009 (ip), vehicle: saline 95 % of control | dose: 40.0 mg/kg/injection, schedule: Q01DX009 (ip), vehicle: saline 95 % of control | dose: 80.0 mg/kg/injection, schedule: Q01DX009 (ip), vehicle: saline 100 % of control | dose: 120.0 mg/kg/injection, schedule: Q01DX009 (ip), vehicle: saline 100 % of control | dose: 240.0 mg/kg/injection, schedule: Q01DX009 (ip), vehicle: saline 95 % of control

SC1(S)CN2CCC1CC2
inactive: dose: 6.25 mg/kg/injection, schedule: Q04DX003 (ip), vehicle: saline 105 % of control | dose: 12.5 mg/kg/injection, schedule: Q04DX003 (ip), vehicle: saline 105 % of control | dose: 25.0 mg/kg/injection, schedule: Q04DX003 (ip), vehicle: saline 105 % of control

CNC(=S)NNC(=O)C1CC1
inactive: dose: 50.0 mg/kg/injection, schedule: Q01DX005 (ip), vehicle: saline 94 % of control | dose: 100.0 mg/kg/injection, schedule: Q01DX005 (ip), vehicle: saline 107 % of control | dose: 200.0 mg/kg/injection, schedule: Q01DX005 (ip), vehicle: saline 94 % of control

COC1=C(N)C(=O)c2nc(-c3nc(C=O)c(C)c(-c4ccc(OC)c(OC)c4O)c3N)ccc2C1=O
inactive: dose: 0.8 mg/kg/injection, schedule: Q01DX009 (ip), vehicle: dioxane 104 % of control | dose: 1.05 mg/kg/injection, schedule: Q01DX009 (ip), vehicle: dioxane 122 % of control | dose: 1.55 mg/kg/injection, schedule: Q01DX009 (ip), vehicle: dioxane 99 % of control | dose: 2.55 mg/kg/injection, schedule: Q01DX009 (ip), vehicle: dioxane 107 % of control | dose: 3.05 mg/kg/injection, schedule: Q01DX009 (ip), vehicle: dioxane 104 % of control | dose: 4.05 mg/kg/injection, schedule: Q01DX009 (ip), vehicle: dioxane 109 % of control | dose: 5.05 mg/kg/injection, schedule: Q01DX009 (ip), vehicle: dioxane 118 % of control

CCCCCCC(=O)/C=C/c1ccccc1OC
inactive: [2] 90 % of control | [3] 99 % of control | [1] 117 % of control

O=C(O)CCC(=O)/C=C1/Nc2ccccc2C1=O
inactive: dose: 100.0 mg/kg/injection, schedule: Q04DX003 (ip), vehicle: saline with Tween-80 110 % of control | dose: 200.0 mg/kg/injection, schedule: Q04DX003 (ip), vehicle: saline with Tween-80 120 % of control
